According to ChEMBL document CHEMBL1212707, “Decoding endocannabinoid signaling” (Nat Chem Biol, 2009):

Assays:
Mus musculus = species on record: Mus musculus; experiment: Inhibition of MAGL in mouse brain; assay type: tissue-based; conditions: dose or concentration not given here
[1] = Inhibition of MAGL
Brain = experiment: Increase in 2-arachidonoylglycerol level in mouse brain relative to untreated control; assay type: functional

For `O=C(Oc1ccc([N+](=O)[O-])cc1)N1CCC(C(O)(c2ccc3c(c2)OCO3)c2ccc3c(c2)OCO3)CC1`, the inhibition (Mus musculus) was 85%, the IC50 [1] was 8 nM and the “fold change (FC)” value (Brain) was 8.
